The source made the active and inactive calls. No cut-off for these calls is given here.
Assays:
[1] = system: Human immunodeficiency virus 1; experiment: Antiviral activity against HIV1 89.6 infected in human PBMC assessed as inhibition of viral p24 antigen production after 7 to 10 days by ELISA; assay type: functional, organism-based; details: Human immunodeficiency virus 1, 89.6
[2] = system: Human immunodeficiency virus 1; experiment: Antiviral activity against HIV1 R5 infected in human PBMC assessed as inhibition of viral p24 antigen production after 7 to 10 days by ELISA; assay type: functional, organism-based; details: Human immunodeficiency virus 1, R5
[3] = system: Human immunodeficiency virus 1; experiment: Antiviral activity against HIV1 JRCSF infected in human PBMC assessed as inhibition of viral p24 antigen production after 7 to 10 days by ELISA; assay type: functional; details: Human immunodeficiency virus 1, JRCSF ISOLATE
[4] = system: Human immunodeficiency virus 1; experiment: Antiviral activity against HIV1 NL4-3 infected in human PBMC assessed as inhibition of viral p24 antigen production after 7 to 10 days by ELISA; assay type: functional, organism-based; details: Human immunodeficiency virus 1, NL4-3
[5] = system: Human immunodeficiency virus 1; experiment: Antiviral activity against HIV1 X4 infected in human PBMC assessed as inhibition of viral p24 antigen production after 7 to 10 days by ELISA; assay type: functional, organism-based; details: Human immunodeficiency virus 1, X4
[6] = system: Human immunodeficiency virus 1; experiment: Antiviral activity against HIV1 A018G infected in human PBMC assessed as inhibition of viral p24 antigen production after 7 to 10 days by ELISA; assay type: functional, organism-based; details: Human immunodeficiency virus 1, A018G
[7] = system: Human immunodeficiency virus 1; experiment: Antiviral activity against HIV1 A018H infected in human PBMC assessed as inhibition of viral p24 antigen production after 7 to 10 days by ELISA; assay type: functional, organism-based; details: Human immunodeficiency virus 1, A018H
[8] = target: T1, C-X-C chemokine receptor type 4 (Homo sapiens, UniProt P61073); details: MOLT-4; 1000 nM
T1 sequence (P61073 whole entry): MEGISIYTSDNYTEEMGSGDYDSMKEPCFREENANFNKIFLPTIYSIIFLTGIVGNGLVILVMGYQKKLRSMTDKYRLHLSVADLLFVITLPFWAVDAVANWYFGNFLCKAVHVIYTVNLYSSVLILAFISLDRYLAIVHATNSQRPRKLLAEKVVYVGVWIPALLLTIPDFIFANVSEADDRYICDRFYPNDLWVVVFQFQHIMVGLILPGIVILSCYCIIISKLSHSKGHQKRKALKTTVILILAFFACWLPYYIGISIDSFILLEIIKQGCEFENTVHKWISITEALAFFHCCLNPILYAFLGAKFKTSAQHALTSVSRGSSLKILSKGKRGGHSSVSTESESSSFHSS
Description: Inhibition of Mab 12G5 binding to CXCR4 expressed in human MOLT4 cells at 1000 nM by FACS analysis

[9] = system: Human immunodeficiency virus 1; experiment: Antiviral activity against T20-resistant HIV1 NL4-3 infected in HEK293 cells assessed as inhibition of viral replication after 2 days; assay type: functional, organism-based; details: Human immunodeficiency virus 1, NL4-3, HEK293, 48 h
[10] = system: C-X-C chemokine receptor type 4 (Homo sapiens), P61073 [H281A]; experiment: Inhibition of Mab 12G5 binding to CXCR4 H281A mutant expressed in HEK293 cells; assay type: cell-based
C-X-C chemokine receptor type 4 (Homo sapiens), P61073 [H281A], sequence (P61073 whole entry H281A): as the sequence (P61073 whole entry) above, with H281A counted along it

[11] = system: Human immunodeficiency virus 1; experiment: Antiviral activity against NNRTI-resistant HIV1 HXB2 infected in HEK293 cells assessed as inhibition of viral replication after 2 days; assay type: functional, organism-based; details: Human immunodeficiency virus 1, HXB2, HEK293, 48 h
[12] = system: Human immunodeficiency virus 1; experiment: Antiviral activity against HIV1 HXB2 infected in HEK293 cells assessed as inhibition of viral replication after 2 days; assay type: functional, organism-based; details: Human immunodeficiency virus 1, HXB2, HEK293, 48 h
[13] = target: T1, C-X-C chemokine receptor type 4; details: MOLT-4; 1000 nM; remark: listed apart in the source
Description: Inhibition of Mab 12G5 binding to CXCR4 expressed in human MOLT4 cells at 1000 nM measured post drug washout by FACS analysis

[14] = system: Human immunodeficiency virus 1; experiment: Antiviral activity against HIV1 NL4-3 infected in HEK293 cells assessed as inhibition of viral replication after 2 days; assay type: functional, organism-based; details: Human immunodeficiency virus 1, NL4-3, HEK293, 48 h
[15] = system: C-X-C chemokine receptor type 4 (Homo sapiens), P61073 [V112A]; experiment: Inhibition of Mab 12G5 binding to CXCR4 V112A mutant expressed in HEK293 cells; assay type: cell-based
C-X-C chemokine receptor type 4 (Homo sapiens), P61073 [V112A], sequence (P61073 whole entry V112A): as the sequence (P61073 whole entry) above, with V112A counted along it

[16] = system: C-X-C chemokine receptor type 4 (Homo sapiens), P61073 [V280A]; experiment: Inhibition of Mab 12G5 binding to CXCR4 V280A mutant expressed in HEK293 cells; assay type: cell-based
C-X-C chemokine receptor type 4 (Homo sapiens), P61073 [V280A], sequence (P61073 whole entry V280A): as the sequence (P61073 whole entry) above, with V280A counted along it

[17] = system: C-X-C chemokine receptor type 4 (Homo sapiens), P61073 [D181A]; experiment: Inhibition of Mab 12G5 binding to CXCR4 D181A mutant expressed in HEK293 cells; assay type: cell-based
C-X-C chemokine receptor type 4 (Homo sapiens), P61073 [D181A], sequence (P61073 whole entry D181A): as the sequence (P61073 whole entry) above, with D181A counted along it

[18] = system: Human immunodeficiency virus 1; experiment: Antiviral activity against multidrug resistant HIV1 HXB2 infected in HEK293 cells assessed as inhibition of viral replication after 2 days; assay type: functional, organism-based; details: Human immunodeficiency virus 1, HXB2, HEK293, 48 h
[19] = system: Human immunodeficiency virus 1; experiment: Antiviral activity against NRTI-resistant HIV1 HXB2 infected in HEK293 cells assessed as inhibition of viral replication after 2 days; assay type: functional, organism-based; details: Human immunodeficiency virus 1, HXB2, HEK293, 48 h
[20] = target: T1, C-X-C chemokine receptor type 4; experiment: Displacement of [125I]SDF-1alpha form CXCR4 expressed in CHO cells at 0.1 to 1000 nmol/L by scintillation counting; assay type: cell-based
[21] = system: Human immunodeficiency virus 1; experiment: Antiviral activity against PI-resistant HIV1 HXB2 infected in HEK293 cells assessed as inhibition of viral replication after 2 days; assay type: functional, organism-based; details: Human immunodeficiency virus 1, HXB2, HEK293, 48 h

Row | Structure (SMILES) | EC50 [1] [nM] | EC50 [2] [nM] | EC50 [3] [nM] | EC50 [4] [nM] | EC50 [5] [nM] | EC50 [6] [nM] | EC50 [7] [nM] | further results
1 | NCCCCN(Cc1nc2ccccc2[nH]1)[C@H]1CCCc2cccnc21 [MAVORIXAFOR] | 55 | > 200 | > 200 | 35 | 15 |  |  | 
2 | COC[C@@H](c1ccc(C(F)(F)F)cc1)N1CCN(C2(C)CCN(C(=O)c3c(C)ncnc3C)CC2)C[C@@H]1C [VICRIVIROC] | > 1000 | 1.2 | 0.37 | > 1000 | > 1000 |  |  | 
3 | Cc1cn([C@H]2C[C@H](N=[N+]=[N-])[C@@H](CO)O2)c(=O)[nH]c1=O [ZIDOVUDINE] | 7.4 | 6.2 | 0.96 | 11 | 8 | 87000 | 1.9 | 
4 | c1cc(CN2CCCNCCNCCCNCC2)ccc1CN1CCCNCCNCCCNCC1 [PLERIXAFOR] | 44 | > 200 | > 200 | 41 | 15 | 32 | 38 | inhibition [8]: Active; IC50 [9]: 2.3 nM; IC90 [10]: 572 nM; IC50 [11]: 7 nM; IC50 [12]: 6.2 nM; inhibition [13]: inactive; IC50 [14]: 4.6 nM; IC90 [15]: 821 nM; IC90 [16]: 821 nM; IC90 [17]: 796 nM; IC50 [18]: 5.3 nM; IC50 [19]: 9 nM; Activity [20]: inactive; IC50 [21]: 9.2 nM
5 | CC(C)(C)NC(=O)[C@@H]1C[C@@H]2CCCC[C@@H]2CN1C[C@@H](O)[C@H](Cc1ccccc1)NC(=O)[C@H](CC(N)=O)NC(=O)c1ccc2ccccc2n1 | 9.9 | 8 | 2.6 | 9 | 29 |  |  | 
